Like-named read-outs stand apart in the source and are kept apart here.
Assays:
Assay type in all cases: in vivo
Pyrenophora teres = assay: Pyrenophora teres-test (barley)/preventive; details: 192 h, read-out: Efficacy in %
Text: (§1) The expected fungicidal action for a given combination of two or three active compounds can be calculated as follows, according to S. R. Colby (“Calculating Synergistic and Antagonistic Responses of Herbicide Combinations”, Weeds 1961 15, 20-22):
(§2) If • X is the efficacy when employing active compound A at an application rate of m g/ha, • Y is the efficacy when employing active compound B at an application rate of n g/ha and • E is the efficacy when employing active compounds A and B at application rates of m and n g/ha,
(§3) Here, the efficacy is determined in %. 0% means an efficacy which corresponds to that of the control, whereas an efficacy of 100% means that no infection is observed.
(§4) If the actual fungicidal action exceeds the calculated value, the action of the combination is superadditive, i.e. a synergistic effect is present. In this case, the actually observed efficacy must exceed the value calculated using the above formula for the expected efficacy (E).
Pyrenophora teres-Test (Barley)/Preventive
(§5) Solvent: 49 parts by weight of n,n-dimethylacetamid
(§6) Emulsifier: 1 part by weight of alkylaryl polyglycol ether
(§7) To produce a suitable preparation of active compound, 1 part by weight of active compound or active compound combination is mixed with the stated amounts of solvent and emulsifier, and the concentrate is diluted with water to the desired concentration.
(§8) To test for preventive activity, young plants are sprayed with the preparation of active compound or active compound combination at the stated rate of application.
After the spray coating has been dried on, the plants are sprayed with a spore suspension of Pyrenophora teres. The plants remain for 48 hours in an incubation cabinet at approximately 20° C. and a relative atmospheric humidity of approximately 100%.
The plants are placed in the greenhouse at a temperature of approximately 20° C. and a relative atmospheric humidity of approximately 80%.
The test is evaluated 8 days after the inoculation. 0% means an efficacy which corresponds to that of the control, while an efficacy of 100% means that no disease is observed.

Uromyces appendiculatus = assay: Uromyces test (beans)/protective; details: protective spray, evaluated 10 days after inoculation
Text: as §1, §2, §3, §4
Uromyces Test (Beans)/Protective
(§9) Solvent: 24,5 parts by weight of acetone • 24,5 parts by weight of dimethylacetamide
as §6
(§10) To produce a suitable preparation of active compound, 1 part by weight of active compound is mixed with the stated amounts of solvent and emulsifier, and the concentrate is diluted with water to the desired concentration.
(§11) To test for protective activity, young plants are sprayed with the preparation of active compound at the stated rate of application. After the spray coating has dried on, the plants are inoculated with an aqueous spore suspension of the causal agent of bean rust (Uromyces appendiculatus) and then remain for 1 day in an incubation cabinet at approximately 20° C. and a relative atmospheric humidity of 100%.
(§12) The plants are then placed in a greenhouse at approximately 21° C. and a relative atmospheric humidity of approximately 90%.
(§13) The test is evaluated 10 days after the inoculation. 0% means an efficacy which corresponds to that of the control, while an efficacy of 100% means that no disease is observed.

Septoria tritici = assay: Septoria tritici-test (wheat)/preventive; details: preventive spray, evaluated 21 days after inoculation
Text: as §1, §2, §3, §4
Septoria tritici-Test (Wheat)/Preventive
as §5, §6, §7, §8
After the spray coating has been dried on, the plants are sprayed with a spore suspension of Septoria tritici. The plants remain for 48 hours in an incubation cabinet at approximately 20° C. and a relative atmospheric humidity of approximately 100% and afterwards for 60 hours at approximately 15° C. in a translucent incubation cabinet at a relative atmospheric humidity of approximately 100%.
The plants are placed in the greenhouse at a temperature of approximately 15° C. and a relative atmospheric humidity of approximately 80%.
The test is evaluated 21 days after the inoculation. 0% means an efficacy which corresponds to that of the control, while an efficacy of 100% means that no disease is observed.

Sphaerotheca fuliginea = assay: Sphaerotheca test (cucumbers)/protective; details: protective spray, evaluated 7 days after inoculation
Text: as §1, §2, §3, §4
Sphaerotheca Test (Cucumbers)/Protective
as §9
(§14) Emulsifier: 1 part by weight of alkylaryl polyglycol ether […]
(§15) The test is evaluated 7 days after the inoculation. […]

Venturia inaequalis = assay: Venturia test (apples)/protective; details: protective spray, evaluated 10 days after inoculation
Text: as §1, §2, §3, §4
Venturia Test (Apples)/Protective
as §9, §6, §10
as §11, with “conidia” for “spore”, “apple scab (Venturia inaequalis)” for “bean rust (Uromyces appendiculatus)”
as §12, §13

[1] = test system: Blumeria graminis f.sp. tritici; assay: Blumeria test (wheat)/preventive; details: preventive spray, evaluated 7 days after inoculation
Text: as §1, §2, §3, §4
Blumeria Test (Wheat)/Preventive
as §5, §14, §15

[2] = barley, preventive spray, 62.5 ppm, evaluated 8 days after inoculation

Structure (SMILES): CO/N=C(/C1=NOCCO1)c1ccccc1Oc1ncnc(Oc2ccccc2Cl)c1F [Ex B1 Fluoxastrobin, Fluoxastrobin]
- pest or weed control at 62.5 ppm (Pyrenophora teres; [2]): 67%

Structure (SMILES): CO/N=C(/C(=O)OC)c1ccccc1CO/N=C(\C)c1cccc(C(F)(F)F)c1 [Ex B1 Trifloxystrobin, Trifloxystrobin]
- Efficacy in % (Uromyces appendiculatus; 1 ppm): 70%
- Efficacy in % (Septoria tritici; 62.5 ppm): 94%

Structure (SMILES): Cc1cc(O)no1 [Ex B2 Hymexazol, Hymexazol]
- pest or weed control at 1000 ppm (Pyrenophora teres; barley, preventive spray, 1000 ppm, evaluated 8 days after inoculation): 0%

Structure (SMILES): CC(C)C1CCC(Cc2ccc(Cl)cc2)C1(O)Cn1cncn1 (stereo not drawn) [Ex B2 Ipconazole, Ipconazole]
- pest or weed control at 250 ppm (Pyrenophora teres; barley, preventive spray, 250 ppm, evaluated 8 days after inoculation): 33%
- Efficacy in % (Sphaerotheca fuliginea; 5 ppm): 50%
- Efficacy in % (Sphaerotheca fuliginea; 10 ppm): 77%

Structure (SMILES): C[Si](C)(C)CC(O)(Cn1cncn1)c1ccc(F)cc1 (stereo not drawn) [Ex B2 Simeconazole, Simeconazole]
- Efficacy in % (Uromyces appendiculatus; 5 ppm): 84%
- Efficacy in % (Septoria tritici; 1000 ppm): 67%

Structure (SMILES): Cn1cc(C(=O)Nc2ccc(F)cc2-c2ccc(Cl)c(Cl)c2)c(C(F)F)n1 [Ex B3 Bixafen, Bixafen]
- pest or weed control at 62.5 ppm (Pyrenophora teres; [2]): 78%
- Efficacy in % (Venturia inaequalis; 1 ppm): 73%

Structure (SMILES): N#Cc1c[nH]cc1-c1cccc2c1OC(F)(F)O2 [Ex B4 Fludioxonil, Fludioxonil]
- Efficacy in % (Uromyces appendiculatus; 200 ppm): 70%
- pest or weed control at 125 ppm (Pyrenophora teres): 44%
- Efficacy in % (Venturia inaequalis; 50 ppm): 26%
- Efficacy in % (Venturia inaequalis; 100 ppm): 30%

Structure (SMILES): COCC(=O)N(c1c(C)cccc1C)[C@H](C)C(=O)OC [Ex B4 Metalaxyl M, Metalaxyl M]
- Efficacy in % ([1]; 250 ppm): 0%
- Efficacy in % (Venturia inaequalis; 200 ppm): 29%

Structure (SMILES): COCC(=O)N(c1c(C)cccc1C)C(C)C(=O)OC (stereo not drawn) [Ex B4 Metalaxyl, Metalaxyl]
- Efficacy in % (Septoria tritici; 1000 ppm): 33%

Structure (SMILES): CCCN(CCOc1c(Cl)cc(Cl)cc1Cl)C(=O)n1ccnc1 [Ex B4 Prochloraz, Prochloraz]
- pest or weed control at 62.5 ppm (Pyrenophora teres): 89%

Structure (SMILES): N#Cc1ccccc1NC(=O)c1snc(Cl)c1Cl [Ex I-2]
- Efficacy in % ([1]; 1000 ppm): 22%
- Efficacy in % (Uromyces appendiculatus; 50 ppm): 8%
- Efficacy in % (Uromyces appendiculatus; 100 ppm): 0%
- Efficacy in % (Uromyces appendiculatus; 200 ppm): 15%
- pest or weed control at 250 ppm (Pyrenophora teres): 0%
- pest or weed control at 1000 ppm (Pyrenophora teres): 11%
- Efficacy in % (Septoria tritici; 1000 ppm): 0%
- Efficacy in % (Venturia inaequalis; 50 ppm): 0%
- Efficacy in % (Venturia inaequalis; 100 ppm): 19%
- Efficacy in % (Venturia inaequalis; 200 ppm): 37%

Structure (SMILES): Cc1nn(C)c(F)c1C(=O)Nc1ccccc1C(C)CC(C)C (stereo not drawn) [N-[2-(1,3-Dimethylbutyl)phenyl]-5-fluor-1,3-dimethyl-1H-pyrazole-4-carboxamide]
- pest or weed control at 62.5 ppm (Pyrenophora teres; [2]): 89%
